# Measured values: patent US6358885B1, “Substituted phenylheterocyclic herbicides” (Mississippi State University, priority 1992, dated 2002)
# Key:
# Test in all cases: Test G preemergence/postemergence greenhouse plant response rating 0 to 100
# sandbur = assay type: in vivo, Cenchrus echinatus; conditions: 0 to 100 scale
# How it was run: (§1)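 Pre- and postemergence treatments used compound in non-phytotoxic solvent on potted greenhouse plants grown from seed, rhizome or plant part. Postemergence plants were at the 2–4 leaf stage; damage was assessed by eye versus untreated pots after 13–21 days.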
# broadleaf signalgrass = assay type: in vivo, Brachiaria plantaginea; conditions: 0 to 100 scale
# How it was run: as §1
# itchgrass = assay type: in vivo, Rottboellia exaltata; conditions: 0 to 100 scale
# How it was run: as §1
# dallisgrass = assay type: in vivo, Paspalum dilatatum; conditions: 0 to 100 scale
# How it was run: as §1
# common purslane = assay type: in vivo, Portulaca oleracea; conditions: 0 to 100 scale
# How it was run: as §1
# common ragweed = assay type: in vivo, Ambrosia elatior; conditions: 0 to 100 scale
# How it was run: as §1
# goosegrass = assay type: in vivo, Eleusine indica; conditions: 0 to 100 scale
# How it was run: as §1
# johnsongrass = assay type: in vivo, Sorghum halepense; conditions: 0 to 100 scale
# How it was run: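 Scoring: visual injury at 13 to 21 days post-application, compared with untreated controls. Planting: one species per pot in greenhouse medium. Dosing: compound in non-phytotoxic solvent, within one day of sowing for preemergence or at 2–4 leaves for postemergence.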
# guineagrass = assay type: in vivo, Panicum maximum; conditions: 0 to 100 scale
# How it was run: as §1
# annual bluegrass = assay type: in vivo, Poa annua; conditions: 0 to 100 scale
# How it was run: as §1
# smooth crabgrass = assay type: in vivo, Digitaria ischaemum; conditions: 0 to 100 scale
# How it was run: as §1
# alfalfa = assay type: in vivo, Medicago ativa; conditions: 0 to 100 scale
# How it was run: as §1
# large crabgrass = assay type: in vivo, Digitaria sanguinalis; conditions: 0 to 100 scale
# How it was run: as §1
# purple nutsedge = assay type: in vivo, Cyperus rotundus; conditions: Rate 125 g/ha, 0 to 100 scale
# How it was run: as §1
# bermudagrass = assay type: in vivo, Cynodon dactylon; conditions: 0 to 100 scale
# How it was run: as §1
# pitted morningglory = assay type: in vivo, Ipomoea lacunosa; conditions: 0 to 100 scale
# How it was run: as §1
structure (smiles),measurement,setting,value
CC(C)N1C(=O)COc2cc(F)c(-c3nn4c(c3Cl)CCCC4)cc21 [Compound 31],"Plant response rating, S. Sandbur","sandbur; POSTEMERGENCE, Rate 125 g/ha",0
same,"Plant response rating, S. Sandbur","sandbur; POSTEMERGENCE, Rate 250 g/ha",0
same,"Plant response rating, S. Sandbur","sandbur; PREEMERGENCE, Rate 125 g/ha",0
same,"Plant response rating, S. Sandbur","sandbur; PREEMERGENCE, Rate 250 g/ha",0
same,"Plant response rating, Brdlf Sgnlgrass","broadleaf signalgrass; POSTEMERGENCE, Rate 125 g/ha",0
same,"Plant response rating, Brdlf Sgnlgrass","broadleaf signalgrass; POSTEMERGENCE, Rate 250 g/ha",0
same,"Plant response rating, Brdlf Sgnlgrass","broadleaf signalgrass; PREEMERGENCE, Rate 125 g/ha",0
same,"Plant response rating, Brdlf Sgnlgrass","broadleaf signalgrass; PREEMERGENCE, Rate 250 g/ha",0
same,"Plant response rating, Itchgrass","itchgrass; POSTEMERGENCE, Rate 125 g/ha",0
same,"Plant response rating, Itchgrass","itchgrass; POSTEMERGENCE, Rate 250 g/ha",20
same,"Plant response rating, Itchgrass","itchgrass; PREEMERGENCE, Rate 125 g/ha",0
same,"Plant response rating, Itchgrass","itchgrass; PREEMERGENCE, Rate 250 g/ha",70
same,"Plant response rating, Dallisgrass","dallisgrass; POSTEMERGENCE, Rate 125 g/ha",0
same,"Plant response rating, Dallisgrass","dallisgrass; POSTEMERGENCE, Rate 250 g/ha",0
same,"Plant response rating, Dallisgrass","dallisgrass; PREEMERGENCE, Rate 125 g/ha",0
same,"Plant response rating, Dallisgrass","dallisgrass; PREEMERGENCE, Rate 250 g/ha",0
same,"Plant response rating, Cmn Purslane","common purslane; POSTEMERGENCE, Rate 125 g/ha",100
same,"Plant response rating, Cmn Purslane","common purslane; POSTEMERGENCE, Rate 250 g/ha",80
same,"Plant response rating, Cmn Purslane","common purslane; PREEMERGENCE, Rate 125 g/ha",0
same,"Plant response rating, Cmn Purslane","common purslane; PREEMERGENCE, Rate 250 g/ha",100
same,"Plant response rating, Cmn Ragweed","common ragweed; POSTEMERGENCE, Rate 125 g/ha",100
same,"Plant response rating, Cmn Ragweed","common ragweed; POSTEMERGENCE, Rate 250 g/ha",100
same,"Plant response rating, Cmn Ragweed","common ragweed; PREEMERGENCE, Rate 125 g/ha",0
same,"Plant response rating, Cmn Ragweed","common ragweed; PREEMERGENCE, Rate 250 g/ha",70
same,"Plant response rating, Goosegrass","goosegrass; POSTEMERGENCE, Rate 125 g/ha",0
same,"Plant response rating, Goosegrass","goosegrass; POSTEMERGENCE, Rate 250 g/ha",0
same,"Plant response rating, Goosegrass","goosegrass; PREEMERGENCE, Rate 125 g/ha",0
same,"Plant response rating, Goosegrass","goosegrass; PREEMERGENCE, Rate 250 g/ha",0
same,"Plant response rating, Johnsongrass","johnsongrass; POSTEMERGENCE, Rate 125 g/ha",0
same,"Plant response rating, Johnsongrass","johnsongrass; POSTEMERGENCE, Rate 250 g/ha",0
same,"Plant response rating, Johnsongrass","johnsongrass; PREEMERGENCE, Rate 125 g/ha",0
same,"Plant response rating, Johnsongrass","johnsongrass; PREEMERGENCE, Rate 250 g/ha",0
same,"Plant response rating, Guineagrass","guineagrass; POSTEMERGENCE, Rate 125 g/ha",0
same,"Plant response rating, Guineagrass","guineagrass; POSTEMERGENCE, Rate 250 g/ha",0
same,"Plant response rating, Guineagrass","guineagrass; PREEMERGENCE, Rate 125 g/ha",0
same,"Plant response rating, Guineagrass","guineagrass; PREEMERGENCE, Rate 250 g/ha",100
same,"Plant response rating, Ann Bluegrass","annual bluegrass; POSTEMERGENCE, Rate 125 g/ha",0
same,"Plant response rating, Ann Bluegrass","annual bluegrass; POSTEMERGENCE, Rate 250 g/ha",0
same,"Plant response rating, Ann Bluegrass","annual bluegrass; PREEMERGENCE, Rate 125 g/ha",0
same,"Plant response rating, Ann Bluegrass","annual bluegrass; PREEMERGENCE, Rate 250 g/ha",0
same,"Plant response rating, Smooth Crabgras","smooth crabgrass; POSTEMERGENCE, Rate 125 g/ha",0
same,"Plant response rating, Smooth Crabgras","smooth crabgrass; POSTEMERGENCE, Rate 250 g/ha",0
same,"Plant response rating, Smooth Crabgras","smooth crabgrass; PREEMERGENCE, Rate 125 g/ha",0
same,"Plant response rating, Smooth Crabgras","smooth crabgrass; PREEMERGENCE, Rate 250 g/ha",0
same,"Plant response rating, Alfalfa Var.","alfalfa; POSTEMERGENCE, Rate 125 g/ha",0
same,"Plant response rating, Alfalfa Var.","alfalfa; POSTEMERGENCE, Rate 250 g/ha",10
same,"Plant response rating, Alfalfa Var.","alfalfa; PREEMERGENCE, Rate 125 g/ha",0
same,"Plant response rating, Alfalfa Var.","alfalfa; PREEMERGENCE, Rate 250 g/ha",30
same,"Plant response rating, Large Crabgrass","large crabgrass; POSTEMERGENCE, Rate 125 g/ha",0
same,"Plant response rating, Large Crabgrass","large crabgrass; POSTEMERGENCE, Rate 250 g/ha",0
same,"Plant response rating, Large Crabgrass","large crabgrass; PREEMERGENCE, Rate 125 g/ha",0
same,"Plant response rating, Large Crabgrass","large crabgrass; PREEMERGENCE, Rate 250 g/ha",0
same,"Plant response rating, Purple Nutsedge",purple nutsedge; POSTEMERGENCE,10
same,"Plant response rating, Purple Nutsedge",purple nutsedge; PREEMERGENCE,0
same,"Plant response rating, Bermudagrass","bermudagrass; POSTEMERGENCE, Rate 125 g/ha",0
same,"Plant response rating, Bermudagrass","bermudagrass; POSTEMERGENCE, Rate 250 g/ha",0
same,"Plant response rating, Bermudagrass","bermudagrass; PREEMERGENCE, Rate 125 g/ha",0
same,"Plant response rating, Bermudagrass","bermudagrass; PREEMERGENCE, Rate 250 g/ha",0
same,"Plant response rating, Pit Morninglory","pitted morningglory; POSTEMERGENCE, Rate 125 g/ha",50
same,"Plant response rating, Pit Morninglory","pitted morningglory; POSTEMERGENCE, Rate 250 g/ha",50
same,"Plant response rating, Pit Morninglory","pitted morningglory; PREEMERGENCE, Rate 125 g/ha",0
same,"Plant response rating, Pit Morninglory","pitted morningglory; PREEMERGENCE, Rate 250 g/ha",0
